Assay: CuAAC macrocyclisation of azide/terminal alkyne linear peptidomimetics to 1,4-triazole (CuI 2 eq, DIPEA 3 eq, Ar-degassed), then Boc removal (TMSCl/MeOH GP4; HCl/dioxane GP5 for A13w, J13w)
Settings: THF (reflux), 1.2 mM, 66.0 °C, 18.0 h, 2 steps

## COC(=O)[C@@H]1CNC(=O)[C@H](Cc2ccccc2)n2cc(nn2)CNC(=O)NC[C@H](NC(=O)OC(C)(C)C)C(=O)N1 [Boc-Dap(CONH-propargyl)-Dap(N3-Phe)-OMe]
From C#CCNC(=O)NC[C@H](NC(=O)OC(C)(C)C)C(=O)N[C@@H](CNC(=O)[C@H](Cc1ccccc1)N=[N+]=[N-])C(=O)OC, 16-membered ring
  ring closure, yield over several steps: 99%

## COC(=O)[C@@H]1CNC(=O)[C@H](Cc2ccccc2)n2cc(nn2)CCC(=O)NCCC[C@H](NC(=O)OC(C)(C)C)C(=O)N1 [Boc-Orn(4-pentynoyl)-Dap(N3-Phe)-OMe]
From C#CCCC(=O)NCCC[C@H](NC(=O)OC(C)(C)C)C(=O)N[C@@H](CNC(=O)[C@H](Cc1ccccc1)N=[N+]=[N-])C(=O)OC, 18-membered ring
  ring closure, yield over several steps: 45%

## COC(=O)[C@@H]1CCCCNC(=O)[C@H](Cc2ccccc2)n2cc(nn2)CCC(=O)NCCC[C@H](NC(=O)OC(C)(C)C)C(=O)N1 [Boc-Orn(4-pentynoyl)-Lys(N3-Phe)-OMe]
From C#CCCC(=O)NCCC[C@H](NC(=O)OC(C)(C)C)C(=O)N[C@@H](CCCCNC(=O)[C@H](Cc1ccccc1)N=[N+]=[N-])C(=O)OC, 21-membered ring
  ring closure, yield over several steps: 88%

## COC(=O)[C@@H]1CCCCNC(=O)[C@H](Cc2ccccc2)n2cc(nn2)CCCC(=O)NCCCC[C@H](NC(=O)OC(C)(C)C)C(=O)N1 [Boc-Lys(5-hexynoyl)-Lys(N3-Phe)-OMe]
From C#CCCCC(=O)NCCCC[C@H](NC(=O)OC(C)(C)C)C(=O)N[C@@H](CCCCNC(=O)[C@H](Cc1ccccc1)N=[N+]=[N-])C(=O)OC, 23-membered ring
  ring closure, yield over several steps: 54%

## COC(=O)[C@@H]1CNC(=O)[C@H](Cc2ccccc2)n2cc(nn2)CCC(=O)NC[C@H](NC(=O)OC(C)(C)C)C(=O)N1 [Boc-Dap(4-pentynoyl)-Dap(N3-Phe)-OMe]
From C#CCCC(=O)NC[C@H](NC(=O)OC(C)(C)C)C(=O)N[C@@H](CNC(=O)[C@H](Cc1ccccc1)N=[N+]=[N-])C(=O)OC, 16-membered ring
  ring closure, yield over several steps: 83%

## COC(=O)[C@@H]1CCCn2cc(nn2)CNC(=O)NC[C@H](NC(=O)OC(C)(C)C)C(=O)N[C@H](C(=O)OC)CCC(=O)N1 [Boc-Dap(CONH-propargyl)-Glu(gamma-Orn(N3)-OMe)-OMe]
From C#CCNC(=O)NC[C@H](NC(=O)OC(C)(C)C)C(=O)N[C@@H](CCC(=O)N[C@@H](CCCN=[N+]=[N-])C(=O)OC)C(=O)OC, 20-membered ring
  ring closure, yield over several steps: 78%

## COC(=O)[C@@H]1CNC(=O)[C@H](Cc2ccccc2)n2cc(nn2)CCCC(=O)NCCCC[C@H](NC(=O)OC(C)(C)C)C(=O)N1 [Boc-Lys(5-hexynoyl)-Dap(N3-Phe)-OMe]
From C#CCCCC(=O)NCCCC[C@H](NC(=O)OC(C)(C)C)C(=O)N[C@@H](CNC(=O)[C@H](Cc1ccccc1)N=[N+]=[N-])C(=O)OC, 20-membered ring
  ring closure, yield over several steps: 61%

## COC(=O)[C@@H]1CCCn2cc(nn2)CNC(=O)NCCC[C@H](NC(=O)OC(C)(C)C)C(=O)N1 [Boc-Orn(CONH-propargyl)-Orn(N3)-OMe]
From C#CCNC(=O)NCCC[C@H](NC(=O)OC(C)(C)C)C(=O)N[C@@H](CCCN=[N+]=[N-])C(=O)OC, 17-membered ring
  ring closure, yield over several steps: 99%

## COC(=O)[C@@H]1CCCCn2cc(nn2)CCC(=O)NCCCC[C@H](NC(=O)OC(C)(C)C)C(=O)N1 [Boc-Lys(4-pentynoyl)-Lys(N3)-OMe]
From C#CCCC(=O)NCCCC[C@H](NC(=O)OC(C)(C)C)C(=O)N[C@@H](CCCCN=[N+]=[N-])C(=O)OC, 19-membered ring
  ring closure, yield over several steps: 30%

## COC(=O)[C@@H]1CCCCNC(=O)[C@H](Cc2ccccc2)n2cc(nn2)CNC(=O)NCCC[C@H](NC(=O)OC(C)(C)C)C(=O)N1 [Boc-Orn(CONH-propargyl)-Lys(N3-Phe)-OMe]
From C#CCNC(=O)NCCC[C@H](NC(=O)OC(C)(C)C)C(=O)N[C@@H](CCCCNC(=O)[C@H](Cc1ccccc1)N=[N+]=[N-])C(=O)OC, 21-membered ring
  ring closure, yield over several steps: 87%

## COC(=O)[C@@H]1CCCCNC(=O)[C@H](Cc2ccccc2)n2cc(nn2)CCC(=O)NC[C@H](NC(=O)OC(C)(C)C)C(=O)N1 [Boc-Dap(4-pentynoyl)-Lys(N3-Phe)-OMe]
From C#CCCC(=O)NC[C@H](NC(=O)OC(C)(C)C)C(=O)N[C@@H](CCCCNC(=O)[C@H](Cc1ccccc1)N=[N+]=[N-])C(=O)OC, 19-membered ring
  ring closure, yield over several steps: 99%

## COC(=O)[C@@H]1CNC(=O)[C@H](Cc2ccccc2)n2cc(nn2)CNC(=O)NCC[C@H](NC(=O)OC(C)(C)C)C(=O)N1 [Boc-Dab(CONH-propargyl)-Dap(N3-Phe)-OMe]
From C#CCNC(=O)NCC[C@H](NC(=O)OC(C)(C)C)C(=O)N[C@@H](CNC(=O)[C@H](Cc1ccccc1)N=[N+]=[N-])C(=O)OC, 17-membered ring
  ring closure, yield over several steps: 64%

## COC(=O)[C@@H]1CCCCn2cc(nn2)CCCC(=O)NCCC[C@H](NC(=O)OC(C)(C)C)C(=O)N1 [Boc-Orn(5-hexynoyl)-Lys(N3)-OMe]
From C#CCCCC(=O)NCCC[C@H](NC(=O)OC(C)(C)C)C(=O)N[C@@H](CCCCN=[N+]=[N-])C(=O)OC, 19-membered ring
  ring closure, yield over several steps: 99%

## COC(=O)[C@@H]1CCCCNC(=O)[C@H](Cc2ccccc2)n2cc(nn2)CNC(=O)NC[C@H](NC(=O)OC(C)(C)C)C(=O)N1 [Boc-Dap(CONH-propargyl)-Lys(N3-Phe)-OMe]
From C#CCNC(=O)NC[C@H](NC(=O)OC(C)(C)C)C(=O)N[C@@H](CCCCNC(=O)[C@H](Cc1ccccc1)N=[N+]=[N-])C(=O)OC, 19-membered ring
  ring closure, yield over several steps: 99%

## COC(=O)[C@@H]1CCCCn2cc(nn2)CCC(=O)NCCC[C@H](NC(=O)OC(C)(C)C)C(=O)N1 [Boc-Orn(4-pentynoyl)-Lys(N3)-OMe]
From C#CCCC(=O)NCCC[C@H](NC(=O)OC(C)(C)C)C(=O)N[C@@H](CCCCN=[N+]=[N-])C(=O)OC, 18-membered ring
  ring closure, yield over several steps: 93%

## COC(=O)[C@@H]1CCCn2cc(nn2)CCC(=O)NCCC[C@H](NC(=O)OC(C)(C)C)C(=O)N1 [Boc-Orn(4-pentynoyl)-Orn(N3)-OMe]
From C#CCCC(=O)NCCC[C@H](NC(=O)OC(C)(C)C)C(=O)N[C@@H](CCCN=[N+]=[N-])C(=O)OC, 17-membered ring
  ring closure, yield over several steps: 85%

## COC(=O)[C@@H]1CNC(=O)[C@H](Cc2ccccc2)n2cc(nn2)CCCC(=O)NC[C@H](NC(=O)OC(C)(C)C)C(=O)N1 [Boc-Dap(5-hexynoyl)-Dap(N3-Phe)-OMe]
From C#CCCCC(=O)NC[C@H](NC(=O)OC(C)(C)C)C(=O)N[C@@H](CNC(=O)[C@H](Cc1ccccc1)N=[N+]=[N-])C(=O)OC, 17-membered ring
  ring closure, yield over several steps: 99%

## COC(=O)[C@@H]1CNC(=O)[C@H](Cc2ccccc2)n2cc(nn2)CCC(=O)NCCCC[C@H](NC(=O)OC(C)(C)C)C(=O)N1 [Boc-Lys(4-pentynoyl)-Dap(N3-Phe)-OMe]
From C#CCCC(=O)NCCCC[C@H](NC(=O)OC(C)(C)C)C(=O)N[C@@H](CNC(=O)[C@H](Cc1ccccc1)N=[N+]=[N-])C(=O)OC, 19-membered ring
  ring closure, yield over several steps: 98%

## COC(=O)[C@@H]1CCCn2cc(nn2)CCCC(=O)Nc2ccc(cc2)C[C@H](NC(=O)OC(C)(C)C)C(=O)N[C@@H](C)C(=O)N1 [Boc-Phe(4-NH-5-hexynoyl)-Ala-Orn(N3)-OMe]
From C#CCCCC(=O)Nc1ccc(C[C@H](NC(=O)OC(C)(C)C)C(=O)N[C@@H](C)C(=O)N[C@@H](CCCN=[N+]=[N-])C(=O)OC)cc1, 23-membered ring
  ring closure, yield over several steps: 21%

## COC(=O)[C@@H]1CCCCn2cc(nn2)CCC(=O)NC[C@H](NC(=O)OC(C)(C)C)C(=O)N1 [Boc-Dap(4-pentynoyl)-Lys(N3)-OMe]
From C#CCCC(=O)NC[C@H](NC(=O)OC(C)(C)C)C(=O)N[C@@H](CCCCN=[N+]=[N-])C(=O)OC, 16-membered ring
  ring closure, yield over several steps: 59%

## COC(=O)[C@@H]1CNC(=O)[C@H](Cc2ccccc2)n2cc(nn2)CCCC(=O)NCC[C@H](NC(=O)OC(C)(C)C)C(=O)N1 [Boc-Dab(5-hexynoyl)-Dap(N3-Phe)-OMe]
From C#CCCCC(=O)NCC[C@H](NC(=O)OC(C)(C)C)C(=O)N[C@@H](CNC(=O)[C@H](Cc1ccccc1)N=[N+]=[N-])C(=O)OC, 18-membered ring
  ring closure, yield over several steps: 70%

## COC(=O)[C@@H]1CNC(=O)[C@H](Cc2ccccc2)n2cc(nn2)CCC(=O)NCC[C@H](NC(=O)OC(C)(C)C)C(=O)N1 [Boc-Dab(4-pentynoyl)-Dap(N3-Phe)-OMe]
From C#CCCC(=O)NCC[C@H](NC(=O)OC(C)(C)C)C(=O)N[C@@H](CNC(=O)[C@H](Cc1ccccc1)N=[N+]=[N-])C(=O)OC, 17-membered ring
  ring closure, yield over several steps: 81%

## COC(=O)[C@@H]1CNC(=O)[C@H](Cc2ccccc2)n2cc(nn2)CCCC(=O)NCCC[C@H](NC(=O)OC(C)(C)C)C(=O)N1 [Boc-Orn(5-hexynoyl)-Dap(N3-Phe)-OMe]
From C#CCCCC(=O)NCCC[C@H](NC(=O)OC(C)(C)C)C(=O)N[C@@H](CNC(=O)[C@H](Cc1ccccc1)N=[N+]=[N-])C(=O)OC, 19-membered ring
  ring closure, yield over several steps: 99%

## COC(=O)[C@@H]1CCCCNC(=O)[C@H](Cc2ccccc2)n2cc(nn2)CCCC(=O)NC[C@H](NC(=O)OC(C)(C)C)C(=O)N1 [Boc-Dap(5-hexynoyl)-Lys(N3-Phe)-OMe]
From C#CCCCC(=O)NC[C@H](NC(=O)OC(C)(C)C)C(=O)N[C@@H](CCCCNC(=O)[C@H](Cc1ccccc1)N=[N+]=[N-])C(=O)OC, 20-membered ring
  ring closure, yield over several steps: 99%
